In ChEMBL document CHEMBL1201862, “PubChem BioAssay data set” (2004):
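These data come from cells grown in 96-well plates and exposed to compound for 48 hours at five concentrations. GI50 = concentration required for 50% inhibition of growth.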 Activity calls are given as the source filed them. No stated cut-off is given here; in the data, active = GI50 up to about 1.1 µM and inactive = higher.

Assays:
Assay in all cases: NCI anticancer screen, dose series, 48 h
[1] = tested on: 786-0
[2] = tested on: A498
[3] = tested on: A549
[4] = tested on: ACHN
[5] = tested on: BT-549
[6] = tested on: CAKI-1
[7] = tested on: CCRF-CEM
[8] = tested on: COLO 205
[9] = tested on: DU-145
[10] = tested on: EKVX
[11] = tested on: HCC 2998
[12] = tested on: HCT-116
[13] = tested on: HCT-15
[14] = tested on: HL-60
[15] = tested on: HOP-62
[16] = tested on: HOP-92
[17] = tested on: HT-29
[18] = tested on: Hs-578T
[19] = tested on: IGROV-1
[20] = tested on: K562
[21] = tested on: KM12
[22] = tested on: LOX IMVI
[23] = tested on: M14
[24] = tested on: MCF7
[25] = tested on: MDA-MB-231
[26] = tested on: MDA-MB-435
[27] = tested on: MDA-N
[28] = tested on: MOLT-4
[29] = tested on: Malme-3M
[30] = tested on: NCI-H226
[31] = tested on: NCI-H23
[32] = tested on: NCI-H460
[33] = tested on: NCI-H522
[34] = tested on: NCI/ADR-RES
[35] = tested on: OVCAR-3
[36] = tested on: OVCAR-4
[37] = tested on: OVCAR-5
[38] = tested on: OVCAR-8
[39] = tested on: PC-3
[40] = tested on: RPMI-8226
[41] = tested on: RXF 393
[42] = tested on: SF-268
[43] = tested on: SF-295
[44] = tested on: SF-539
[45] = tested on: SK-MEL-28
[46] = tested on: SK-MEL-2
[47] = tested on: SK-MEL-5
[48] = tested on: SK-OV-3
[49] = tested on: SN12C
[50] = tested on: SNB-19
[51] = tested on: SW-620
[52] = tested on: T47D
[53] = tested on: TK-10
[54] = tested on: U-251
[55] = tested on: UACC-257
[56] = tested on: UACC-62
[57] = tested on: UO-31

## CC(C)CNc1nc2ncnc(N)c2[nH]1
[1]
  GI50: > 100 µM (inactive)
[2]
  GI50: > 100 µM (inactive)
[3]
  GI50: > 100 µM (inactive)
[4]
  GI50: > 100 µM (inactive)
[5]
  GI50: > 100 µM (inactive)
[6]
  GI50: > 100 µM (inactive)
[7]
  GI50: > 100 µM (inactive)
[8]
  GI50: > 100 µM (inactive)
[9]
  GI50: > 100 µM (inactive)
[10]
  GI50: > 100 µM (inactive)
[11]
  GI50: > 100 µM (inactive)
[12]
  GI50: > 100 µM (inactive)
[13]
  GI50: > 100 µM
[14]
  GI50: < 10 nM (active)
[15]
  GI50: > 100 µM (inactive)
[16]
  GI50: 56.8 µM (inactive)
[17]
  GI50: > 100 µM (inactive)
[18]
  GI50: > 100 µM (inactive)
[19]
  GI50: > 100 µM (inactive)
[20]
  GI50: > 100 µM (inactive)
[21]
  GI50: > 100 µM (inactive)
[22]
  GI50: > 100 µM (inactive)
[23]
  GI50: > 100 µM (inactive)
[24]
  GI50: > 100 µM (inactive)
[25]
  GI50: > 100 µM (inactive)
[26]
  GI50: > 100 µM (inactive)
[27]
  GI50: > 100 µM (inactive)
[28]
  GI50: > 100 µM (inactive)
[29]
  GI50: > 100 µM (inactive)
[30]
  GI50: > 100 µM (inactive)
[31]
  GI50: > 100 µM (inactive)
[32]
  GI50: > 100 µM (inactive)
[33]
  GI50: > 100 µM (inactive)
[34]
  GI50: > 100 µM (inactive)
[35]
  GI50: > 100 µM (inactive)
[36]
  GI50: > 100 µM (inactive)
[37]
  GI50: > 100 µM (inactive)
[38]
  GI50: > 100 µM (inactive)
[39]
  GI50: > 100 µM (inactive)
[40]
  GI50: > 100 µM (inactive)
[41]
  GI50: > 100 µM (inactive)
[42]
  GI50: > 100 µM (inactive)
[43]
  GI50: > 100 µM (inactive)
[44]
  GI50: > 100 µM (inactive)
[45]
  GI50: > 100 µM (inactive)
[46]
  GI50: > 100 µM (inactive)
[47]
  GI50: > 100 µM (inactive)
[48]
  GI50: > 100 µM (inactive)
[49]
  GI50: > 100 µM (inactive)
[50]
  GI50: > 100 µM (inactive)
[51]
  GI50: > 100 µM (inactive)
[52]
  GI50: > 100 µM (inactive)
[53]
  GI50: > 100 µM (inactive)
[54]
  GI50: > 100 µM (inactive)
[55]
  GI50: > 100 µM (inactive)
[56]
  GI50: > 100 µM (inactive)
[57]
  GI50: > 100 µM (inactive)
